# Experimental data as given in PubChem BioAssay AID2060901 (Molecular Pharmacology Branch, DTP, NCI, 2025).
# Test system: 422866-222-R5-J1-PDC complex spheroids viability
# Assay: Anticancer human tumor 422866-222-R5-J1-PDC patient-derived pancreatic adenocarcinoma cell line growth inhibition [RAS]
# Settings: for IC50: curve of first compound; for viability, T/C: stronger effect = lower value
# Summary of the method: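 Agents were tested in combination matrices in half-log decrements from a top concentration at or near clinical Cmax (10 microM if undetermined). Targets were multi-cell spheroids of tumour lines plus HUVEC and MSC stromal cells.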
# [1] = second compound 0.00316 µM, first compound 0.0316 µM
# [2] = second compound 0.00316 µM, first compound 0.1 µM
# [3] = second compound 0.00316 µM, first compound 0.316 µM
# [4] = second compound 0.00316 µM, first compound 1 µM
# [5] = second compound 0.00316 µM, first compound 3.16 µM
# [6] = second compound 0.00316 µM, first compound 10 µM
# [7] = second compound 0.01 µM, first compound 0.0316 µM
# [8] = second compound 0.01 µM, first compound 0.1 µM
# [9] = second compound 0.01 µM, first compound 0.316 µM
# [10] = second compound 0.01 µM, first compound 1 µM
# [11] = second compound 0.01 µM, first compound 3.16 µM
# [12] = second compound 0.01 µM, first compound 10 µM
# [13] = second compound 0.0316 µM, first compound 0.0316 µM
# [14] = second compound 0.0316 µM, first compound 0.1 µM
# [15] = second compound 0.0316 µM, first compound 0.316 µM
# [16] = second compound 0.0316 µM, first compound 1 µM
# [17] = second compound 0.0316 µM, first compound 3.16 µM
# [18] = second compound 0.0316 µM, first compound 10 µM
# [19] = second compound 0.1 µM, first compound 0.0316 µM
# [20] = second compound 0.1 µM, first compound 0.1 µM
# [21] = second compound 0.1 µM, first compound 0.316 µM
# [22] = second compound 0.1 µM, first compound 1 µM
# [23] = second compound 0.1 µM, first compound 3.16 µM
# [24] = second compound 0.1 µM, first compound 10 µM
# [25] = second compound 0.316 µM, first compound 0.0316 µM
# [26] = second compound 0.316 µM, first compound 0.1 µM
# [27] = second compound 0.316 µM, first compound 0.316 µM
# [28] = second compound 0.316 µM, first compound 1 µM
# [29] = second compound 0.316 µM, first compound 3.16 µM
# [30] = second compound 0.316 µM, first compound 10 µM
# [31] = second compound 1 µM, first compound 0.0316 µM
# [32] = second compound 1 µM, first compound 0.1 µM
# [33] = second compound 1 µM, first compound 0.316 µM
# [34] = second compound 1 µM, first compound 1 µM
# [35] = second compound 1 µM, first compound 3.16 µM
# [36] = second compound 1 µM, first compound 10 µM
# 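Note: spheroids exposed to compounds for 7 days.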
# 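Throughout, for viability, T/C: 100% = DMSO vehicle control viability.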
smiles,measurement,setting,value
CC(Nc1ccc2c(c1)OCCn1cc(N3C(=O)OCC3C(F)F)nc1-2)C(N)=O (stereo unspecified) + C=CC(=O)N1CCN(c2nc(OCC3CCCN3C)nc3c(F)c(-c4nc(N)cc(C)c4C(F)(F)F)c(Cl)cc23)C(C)C1,IC50,second compound 0.00316 µM,< 31.6 nM
same,IC50,second compound 0.01 µM,< 31.6 nM
same,IC50,second compound 0.0316 µM,< 31.6 nM
same,IC50,second compound 0.1 µM,< 31.6 nM
same,IC50,second compound 0.316 µM,< 31.6 nM
same,IC50,second compound 1 µM,< 31.6 nM
same,"viability, T/C",[1],20.8%
same,"viability, T/C",[2],19.9%
same,"viability, T/C",[3],12.6%
same,"viability, T/C",[4],11%
same,"viability, T/C",[5],7.97%
same,"viability, T/C",[6],7.01%
same,"viability, T/C",[7],19.1%
same,"viability, T/C",[8],18%
same,"viability, T/C",[9],13.5%
same,"viability, T/C",[10],6.65%
same,"viability, T/C",[11],7.17%
same,"viability, T/C",[12],4.82%
same,"viability, T/C",[13],24.5%
same,"viability, T/C",[14],14.3%
same,"viability, T/C",[15],9.64%
same,"viability, T/C",[16],7.15%
same,"viability, T/C",[17],5.78%
same,"viability, T/C",[18],4.99%
same,"viability, T/C",[19],14.6%
same,"viability, T/C",[20],10.9%
same,"viability, T/C",[21],9.29%
same,"viability, T/C",[22],8.93%
same,"viability, T/C",[23],5.79%
same,"viability, T/C",[24],5.64%
same,"viability, T/C",[25],18.3%
same,"viability, T/C",[26],11%
same,"viability, T/C",[27],9.82%
same,"viability, T/C",[28],6.95%
same,"viability, T/C",[29],6.91%
same,"viability, T/C",[30],7.16%
same,"viability, T/C",[31],16.5%
same,"viability, T/C",[32],15.8%
same,"viability, T/C",[33],9.93%
same,"viability, T/C",[34],7.52%
same,"viability, T/C",[35],6.84%
same,"viability, T/C",[36],7.05%
C[C@@H](NC(=O)c1ncnc(N)c1Cl)c1ncc(C(=O)Nc2cc(C(F)(F)F)c(Cl)cn2)s1 + C=CC(=O)N1CCN(c2nc(OCC3CCCN3C)nc3c(F)c(-c4nc(N)cc(C)c4C(F)(F)F)c(Cl)cc23)C(C)C1,IC50,second compound 0.00316 µM,< 31.6 nM
same,IC50,second compound 0.01 µM,< 31.6 nM
same,IC50,second compound 0.0316 µM,< 31.6 nM
same,IC50,second compound 0.1 µM,< 31.6 nM
same,IC50,second compound 0.316 µM,< 31.6 nM
same,IC50,second compound 1 µM,< 31.6 nM
same,"viability, T/C",[1],31.7%
same,"viability, T/C",[2],47.2%
same,"viability, T/C",[3],31.7%
same,"viability, T/C",[4],29%
same,"viability, T/C",[5],32%
same,"viability, T/C",[6],30.6%
same,"viability, T/C",[7],41.5%
same,"viability, T/C",[8],32.2%
same,"viability, T/C",[9],33.3%
same,"viability, T/C",[10],29.2%
same,"viability, T/C",[11],30%
same,"viability, T/C",[12],28.9%
same,"viability, T/C",[13],30.8%
same,"viability, T/C",[14],30.8%
same,"viability, T/C",[15],25.1%
same,"viability, T/C",[16],27.4%
same,"viability, T/C",[17],29.5%
same,"viability, T/C",[18],26.7%
same,"viability, T/C",[19],30.5%
same,"viability, T/C",[20],25%
same,"viability, T/C",[21],27.9%
same,"viability, T/C",[22],30.3%
same,"viability, T/C",[23],26.7%
same,"viability, T/C",[24],30.5%
same,"viability, T/C",[25],28%
same,"viability, T/C",[26],24.1%
same,"viability, T/C",[27],27.6%
same,"viability, T/C",[28],23.1%
same,"viability, T/C",[29],28.6%
same,"viability, T/C",[30],31.8%
same,"viability, T/C",[31],27.1%
same,"viability, T/C",[32],29.4%
same,"viability, T/C",[33],27.2%
same,"viability, T/C",[34],30%
same,"viability, T/C",[35],32.1%
same,"viability, T/C",[36],29.4%
O=C(c1ccc(F)c(F)c1Nc1ccc(I)cc1F)N1CC(O)([C@@H]2CCCCN2)C1 + C=CC(=O)N1CCN(c2nc(OCC3CCCN3C)nc3c(F)c(-c4nc(N)cc(C)c4C(F)(F)F)c(Cl)cc23)C(C)C1,IC50,second compound 0.00316 µM,< 3.16 nM
same,IC50,second compound 0.01 µM,< 3.16 nM
same,IC50,second compound 0.0316 µM,< 3.16 nM
same,IC50,second compound 0.1 µM,< 3.16 nM
same,IC50,second compound 0.316 µM,< 3.16 nM
same,IC50,second compound 1 µM,< 3.16 nM
same,"viability, T/C","second compound 0.00316 µM, first compound 0.00316 µM",27.3%
same,"viability, T/C","second compound 0.00316 µM, first compound 0.01 µM",29%
same,"viability, T/C",[1],20.7%
same,"viability, T/C",[2],18.1%
same,"viability, T/C",[3],16.6%
same,"viability, T/C",[4],17.1%
same,"viability, T/C","second compound 0.01 µM, first compound 0.00316 µM",39.6%
same,"viability, T/C","second compound 0.01 µM, first compound 0.01 µM",22.1%
same,"viability, T/C",[7],21.8%
same,"viability, T/C",[8],15.2%
same,"viability, T/C",[9],17%
same,"viability, T/C",[10],12.9%
same,"viability, T/C","second compound 0.0316 µM, first compound 0.00316 µM",28.7%
same,"viability, T/C","second compound 0.0316 µM, first compound 0.01 µM",24.2%
same,"viability, T/C",[13],18.3%
same,"viability, T/C",[14],14.5%
same,"viability, T/C",[15],17.8%
same,"viability, T/C",[16],14.6%
same,"viability, T/C","second compound 0.1 µM, first compound 0.00316 µM",22.3%
same,"viability, T/C","second compound 0.1 µM, first compound 0.01 µM",18.9%
same,"viability, T/C",[19],17.4%
same,"viability, T/C",[20],13.8%
same,"viability, T/C",[21],14.9%
same,"viability, T/C",[22],14.3%
same,"viability, T/C","second compound 0.316 µM, first compound 0.00316 µM",18%
same,"viability, T/C","second compound 0.316 µM, first compound 0.01 µM",18.2%
same,"viability, T/C",[25],20.1%
same,"viability, T/C",[26],12.6%
same,"viability, T/C",[27],16.4%
same,"viability, T/C",[28],14.1%
same,"viability, T/C","second compound 1 µM, first compound 0.00316 µM",19.7%
same,"viability, T/C","second compound 1 µM, first compound 0.01 µM",17.7%
same,"viability, T/C",[31],18.5%
same,"viability, T/C",[32],15%
same,"viability, T/C",[33],14.8%
same,"viability, T/C",[34],16.1%
